Earlier results in patent US8431165B2, “Medicament for treatment of cancer and other diseases” (Swing Aerobics Licensing, Inc., priority 2004, dated 2013).

Conditions: adult men and women, mean+SD

SMILES: CC/C=C\C/C=C\C/C=C\CCCCCCCC(=O)O [alpha-linolenic acid]
- average estimated conversion of alpha-linolenic acid to docosahexaenoic acid: 3.6±3.8%
- average estimated conversion of alpha-linolenic acid to n-3 LC-PUFA metabolites: 17.3±12.8%
